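Assay format: 96-well plates, 48-hour exposure. Abbreviation: GI50, concentration required for 50% inhibition of growth.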 Calls of active or inactive are those of the source. Rule as the data show it: active = GI50 up to about 1.1 µM and inactive = higher.
Assays:
Assay in all cases: NCI tumour cell line growth inhibition, 48 h
RXF 393 = tested on: RXF 393
786-0 = tested on: 786-0
UACC-62 = tested on: UACC-62
HOP-62 = tested on: HOP-62
SK-MEL-2 = tested on: SK-MEL-2
LOX IMVI = tested on: LOX IMVI
PC-3 = tested on: PC-3
ACHN = tested on: ACHN
SK-OV-3 = tested on: SK-OV-3
SK-MEL-5 = tested on: SK-MEL-5
OVCAR-8 = tested on: OVCAR-8
NCI-H226 = tested on: NCI-H226
NCI-H23 = tested on: NCI-H23
MOLT-4 = tested on: MOLT-4
UACC-257 = tested on: UACC-257
DU-145 = tested on: DU-145
MCF7 = tested on: MCF7
OVCAR-4 = tested on: OVCAR-4
HL-60 = tested on: HL-60
T47D = tested on: T47D

Compound	GI50 (RXF 393)	GI50 (786-0)	GI50 (UACC-62)	GI50 (HOP-62)	GI50 (SK-MEL-2)	GI50 (LOX IMVI)	GI50 (PC-3)	GI50 (ACHN)	GI50 (SK-OV-3)	GI50 (SK-MEL-5)	GI50 (OVCAR-8)	GI50 (NCI-H226)	GI50 (NCI-H23)	GI50 (MOLT-4)	GI50 (UACC-257)	GI50 (DU-145)	GI50 (MCF7)	GI50 (OVCAR-4)	GI50 (HL-60)	GI50 (T47D)
CC1(C)CN(CC(=O)O)CC(Cc2ccc(OCC(=O)O)cc2)N(CC(=O)O)CC(C)(C)SS1 (configuration not stated)	> 100 µM (inactive)	> 100 µM (inactive)	> 100 µM (inactive)	> 100 µM (inactive)	> 100 µM (inactive)	> 100 µM (inactive)	> 100 µM (inactive)	> 100 µM (inactive)	> 100 µM (inactive)	> 100 µM (inactive)	> 100 µM (inactive)	> 100 µM (inactive)	> 100 µM (inactive)	> 100 µM (inactive)	> 100 µM (inactive)	> 100 µM (inactive)	> 100 µM (inactive)	> 100 µM (inactive)		
O=C(O)/C=C/c1ccc(O)c(O)c1 [CAFFEIC ACID]	> 100 µM (inactive)	> 100 µM (inactive)	> 100 µM (inactive)	> 100 µM (inactive)	> 100 µM (inactive)	> 100 µM (inactive)	> 100 µM (inactive)	> 100 µM (inactive)	> 100 µM (inactive)	> 100 µM (inactive)	> 100 µM (inactive)	> 100 µM (inactive)	> 100 µM (inactive)	> 100 µM (inactive)	> 100 µM (inactive)	> 100 µM (inactive)		> 100 µM (inactive)	> 100 µM (inactive)	
COc1ccccc1NC(=S)NNC(=O)c1cc(-c2ccccc2)nc2ccccc12	3.27 µM (inactive)	13.2 µM (inactive)	5.86 µM (inactive)	11.7 µM (inactive)	10.4 µM (inactive)		10.3 µM (inactive)	17.7 µM (inactive)	16.9 µM (inactive)	5.81 µM (inactive)	18 µM (inactive)	17.3 µM (inactive)	13.9 µM (inactive)	4.3 µM (inactive)	18.2 µM (inactive)	12.4 µM (inactive)		14.7 µM (inactive)		15.9 µM (inactive)
C/C(=N\NC(=S)NCCCCNC(=S)N/N=C(\C)c1ccccn1)c1ccccc1	1.02 µM (active)	6.18 µM (inactive)	1.12 µM (active)	0.745 µM (active)	6.71 µM (inactive)	0.845 µM (active)	3.02 µM (inactive)	0.601 µM (active)	2.27 µM (inactive)	0.714 µM (active)	0.337 µM (active)		2.73 µM (inactive)	0.556 µM (active)	1.78 µM (inactive)	0.979 µM (active)	0.416 µM (active)	1.43 µM (inactive)		0.351 µM (active)
O=C(CC(C(=O)c1ccoc1)c1ccco1)c1ccco1 (configuration not stated)	> 100 µM (inactive)	> 100 µM (inactive)	> 100 µM (inactive)	> 100 µM (inactive)		> 100 µM (inactive)		> 100 µM (inactive)	> 100 µM (inactive)	> 100 µM (inactive)	> 100 µM (inactive)	> 100 µM (inactive)	98.4 µM (inactive)	> 100 µM (inactive)	> 100 µM (inactive)	> 100 µM (inactive)	> 100 µM (inactive)	43.1 µM (inactive)	> 100 µM (inactive)	> 100 µM (inactive)
C=C1[C@H](OCC(C)C)[C@@H](OCC(C)C)[C@@H](O)C(C)(C)/C=C/[C@H](C)C(=O)[C@@]2(O)C[C@H](C)[C@H](O)[C@@H]2[C@H]1OCC(C)C	> 7.5 µM (inactive)	4.49 µM (inactive)	7.19 µM (inactive)	1.16 µM (inactive)	> 7.5 µM (inactive)	> 7.5 µM (inactive)	> 7.5 µM (inactive)	> 7.5 µM (inactive)	> 7.5 µM (inactive)	7.18 µM (inactive)	> 7.5 µM (inactive)		> 7.5 µM (inactive)	0.676 µM (active)	> 7.5 µM (inactive)	> 7.5 µM (inactive)	> 7.5 µM (inactive)	> 7.5 µM (inactive)		> 7.5 µM (inactive)
Cc1cccc2c(=O)c3c(O)cc(O)cc3n(C)c12	> 100 µM (inactive)	> 100 µM (inactive)	> 100 µM (inactive)	> 100 µM (inactive)	> 100 µM (inactive)	> 100 µM (inactive)	> 100 µM (inactive)	> 100 µM (inactive)	> 100 µM (inactive)	> 100 µM (inactive)	> 100 µM (inactive)	> 100 µM (inactive)	> 100 µM (inactive)	> 100 µM (inactive)	> 100 µM (inactive)	> 100 µM (inactive)	> 100 µM (inactive)	> 100 µM (inactive)	> 100 µM (inactive)	
C[C@@H](NC1CCCC[C@H]1O)c1ccccc1 (some centres not stated)	> 100 µM (inactive)	> 100 µM (inactive)	> 100 µM (inactive)	> 100 µM (inactive)	> 100 µM (inactive)	> 100 µM (inactive)		> 100 µM (inactive)	> 100 µM (inactive)	> 100 µM (inactive)	> 100 µM (inactive)	> 100 µM (inactive)	> 100 µM (inactive)	> 100 µM (inactive)	> 100 µM (inactive)			> 100 µM (inactive)	> 100 µM (inactive)	

— ChEMBL document CHEMBL1201862, “PubChem BioAssay data set” (2004)
